# Data: patent publication US20210063374A1, “ABNORMAL CARDIAC RHYTHM MYOCARDIAL MODEL AND METHOD FOR PRODUCING SAME, AGENT FOR FORMING ABNORMAL CARDIAC RHYTHM MYOCARDIAL MODEL, AND METHOD FOR EVALUATING DRUG EFFICACY OF HEART DISEASE THERAPEUTIC” (TOPPAN PRINTING CO., LTD., priority 2017, published 2021)
# “Also recorded” adds a separate entry of the source.
# Tested on: myocardial models composed of three-dimensional tissues (iPS-CM 75%/NHCF 25%)
# Assay: Evaluation of drug response to isoproterenol (change rate of the number of beats of myocardial model)
# Assay type: cell-based, human
# Details: 100 nM isoproterenol, 30, 60, 80 min incubation, FIG. 12
# Method: 5 mL of 10× phosphate buffered saline (PBS) was added to 50 mg of a pig skin-derived type I collagen (provided by NH Foods Ltd.), and was subjected to homogenization by using a homogenizer for 6 min. Subsequently, centrifugation was performed at 10000 rpm for 3 min to remove the supernatant. 5 mL of serum-free DMEM was added thereto, followed by washing by pipetting for 1 min. After the washing, centrifugation was performed at 10000 rpm for 3 min to remove the supernatant. 5 mL of serum-containing DMEM was added thereto to prepare a culture medium (CMF concentration: 9.8 mg/mL) having fragmented collagens (CMF) dispersed therein. Dispersions were weighed from the culture medium having CMF dispersed therein such that the amounts of CMFs were 0, 1, 2, and 3 mg, were mixed with 5×10^5 cells of iPS-CM 75%/NHCF 25%, and were seeded in a 96-well round-bottomed non-adherent plate (the amount of the culture medium: 300 μL). Subsequently, centrifugation was performed at 1100 g for 5 min to precipitate the CMFs and the cells. After the centrifugation, culturing was performed in a culture-ware at 37° C. The culture medium was replaced every 2 days by removing the old culture medium and adding 300 μL of new culture medium.
# A three-dimensional tissue was constructed in the same manner as above. […] The content of the collagen in the three-dimensional tissue was measured using the kit above according to the standard protocol of the kit.
# The cardiac rhythms of the tissues after culturing for 5 to 6 days were taken using a SONY Motion analyzer to measure the number of beats. […] From the results of measurement, the change rate of the number of beats (change rate of beating) by adding isoproterenol was calculated from the following equation. […]
# The change rate of the number of beats caused by addition of isoproterenol is determined by the equation above, and this value is corrected by the equation below, i.e., by dividing this value by the change rate of the number of beats when the drug is not added (=a change in the number of beats caused by replacement of the culture medium).
compound,measurement,setting,value
CC(C)NCC(O)c1ccc(O)c(O)c1 (stereo not drawn) [isoproterenol],drug response (change rate of the number of beats),myocardial model with 0 mg CMFs,poor
same,drug response (change rate of the number of beats),myocardial model with 1 mg CMFs,exhibited; also recorded: more favorable drug response
same,drug response (change rate of the number of beats),myocardial model with 3 mg CMFs,exhibited
